Read-outs that look alike come from different tables or passages of the source.

For data set [1] the following is noted: topical delivery; 100 μL of 5 mg/mL; 3% agarose; 30 min. The text has this: Agarose and other agar-based hydrogels have been widely used as skin models in previous studies^37,38. […] The intensity is also plotted quantitatively against the depth of penetration (FIG. 15C).
The nature of data set [2]: Release profile from hydrogel-filled MNAs. The data set is classed as physicochemical. Particulars: three concentrations, 3 mm and 2 mm MNAs, 72 hrs in PBS. How it is done: MNAs were filled with this BSA-containing alginate solution and Calcium Chloride (CaCl2) used for crosslinking following this protocol: first placing MNAs in 3% (w/v) agarose gel containing 2% (v/v) CaCl2 for few minutes and then pipetting additional 2% (v/v) CaCl2 over the tops to ensure complete crosslinking.
To perform a 3-day long release study, each needle array was placed in 0.5 mL of PBS. Samples were taken from solution at each time point over the course of 72 hrs and were stored in micro vials at room temperature over the duration of the release. For the final evaluation of protein release, 150 μL of each sample added to 96 well plates mixed with 150 μL of working reagent. Working reagent solution was made from a mixture of reagent A, B and C of BCA protein kit with the ratio of 24:24:1. Once reagents and samples were mixed, plates were incubated at 37° C. for an hour, and a plate reader (BioTech) used to read the absorption. Absorption values from the plate reader converted to concentrations using a calibration curve.
After filling the MNAs with the solution, PEGDA was photocrosslinked for approximately 30 seconds using a handheld UV light. A similar experimental protocol followed to study protein release from PEGDA over the course of 72 hours.

Data set [3] relates to HUVECs. Particulars: VEGF equivalent to 50 ng/mL through MNAs. On the procedure: To develop a method for mimicking the crust and necrotic tissue covering chronic wounds, 12-well cell culture inserts were used and covered with […] of 3% (w/v) agarose solution […]. […] Similar techniques were applied for scratch assay with seeding HUVECs in the bottom of chamber covered by 2 mL basal media.
To assess the effectiveness of the released factors, a standard scratch assay was conducted. Wells of a 12-well plate were coated by Geltrex. After aspirating the Geltrex from the wells, 30,000 cells per well were seeded and cultured until a confluent monolayer formed in each well. The cells were cultured in basal media supplemented with 2% FBS for 6 hours. prior to the experiments. On the day of experiments, an approximately 200 μm wide scratch was formed using a 200 μL micropipette tip. […] Fixed points of each well (two points per well) were imaged using a Nikon Ti inverted microscope after 0, 2, and 4 hours after each treatment application. A total of 4 samples per condition was tested.

For data set [4], the system named is full thickness skin wounds of diabetic (Lepr^db) mice. How it is done: To further investigate the potential benefits of MNAs in treatment of diabetic and chronic wounds, an animal study was conducted on diabetic mice with cutaneous wounds. Homozygous mice for the diabetes spontaneous mutation (Lepr^db) become identifiably obese around 3 to 4 weeks of age. On day 10 to 14 elevations of plasma insulin begin and at four to eight weeks the blood sugar level elevates. With a delayed wound healing and an increased metabolic efficiency this mouse strain serves as a suitable model for chronic wound research.
On day one, all the mice received a square shaped 1 cm×1 cm full thickness skin cut on their dorsum. The animals were kept untreated for 5 days to allow the formation of wound crust. On days 5 and 7 post-surgery, animals received the planned treatment. T weight of each animal was recorded periodically, and wound areas were assessed every two days and photographed to monitor investigate wound closure (FIG. 5A).
Animal Studies: All animal procedures were reviewed and approved by the Institutional Animal Care and Use Committee (IACUC) of the University of Nebraska, Lincoln. Five weeks old B6.BKS(D)-Lepr^db/J mice were purchased from the Jackson Laboratory (Bar Harbor, Me.) weighted between 34-43 grams and accommodated in University of Nebraska, Life Science, animal facility for one week before the wound injury procedure. The animals were on special food diet during the entire research period.
In the day 1, all animals were anesthetized by 5% of isoflurane using anesthesia system, (VetFlo, Kent Scientific, Torrington, Conn.) via a nose cone. The hair on the dorsal region of animals was shaved using an electric razor. The skin was sterilized, and a full thickness skin cut of 1 cm×1 cm was created. The wounds were covered with a regular bandage. All mice placed back in separate cages individually after recovering from anesthesia. Animals were monitored for wound condition, vitals and wellbeing, and weight gain/loss trends daily.
To simulate the real wound conditions covered by crust and necrotic tissues, treatment start points were on day 5 by which a complete crust was formed on the wounds. […] In the topical delivery group, 100 μl of the solution was poured topically using a pipette on the top of the wound and the animals were let to sit for about 10 minutes, the wound was then covered by a fresh dressing. In MNAs delivery group, 100 μl of the solution was delivered using the MNAs and after 10 min, the microneedles were removed and the wound was covered by a fresh dressing. Animals of negative control received no treatment. […] Wounds were inspected every 2 days and the bandage was changed and a picture of the wound was taken using a digital camera.
On day 19, all animals were sacrificed using 20% CO2 volume displacement (flow rate cage volume/per minute) poisoning overdose and wound tissue was harvested and fixed in using 4% paraformaldehyde (PFA).
Histology: Frozen sections of haired skin were stored in a −80° C. ultralow freezer prior to sectioning on a cryotome. The sections of skin were cut 10 μm thick using a Thermo Scientific CryoStar NX50, routinely stained with hematoxylin and eosin on a Leica ST5020 H&E stainer, and coverslipped with a Leica CV5030 coverslipper. A veterinary anatomic pathologist who is board certified by the American College of Veterinary Pathologists performed all histological evaluations. Immunohistochemistry was done manually using Anti-CD31, rabbit host species (ab28364, Abcam, MA, USA).

Data set [5] concerns full-thickness skin wounds of diabetic (Lepr^db) mice. Particulars: for average healing rate: 100 μL of 500 ng/mL on days 5 and 7; for histological features at the central region of the wounds (H&E): day 19. The text has this: On the day of surgery, mice received a full thickness (1×1 cm^2) skin wound on their dorsum. Mice with the full thickness (1×1 cm^2) wound on their dorsum were kept untreated for 5 days to allow eschar formation. Animals received treatment via three different delivery methods on days 5 and 7 post-surgery. […] Similar to in vitro experiments, to minimize the potential injury upon the delivery of therapeutics intradermally using LJI, a layer of agarose was placed between the wound and the nozzle.
Small Animal studies: Murine animal procedures were approved by the Institutional Animal Care and Use Committee (IACUC) of the University of Nebraska, Lincoln. Six to seven weeks old B6.BKS(D)-Lepr^db/J mice were obtained from the Jackson Laboratory (Bar Harbor, Me.). Since this mouse strain had congenic obesity, the animals were put on a special food diet. […] On day 0 of the study, 5% isoflurane was provided via a nose cone for anesthetization of animals and 3% isoflurane was used for maintaining sedation. The hair on the dorsal area was shaved, the skin was sterilized, and a full-thickness skin cut of 1 cm×1 cm was created. Buprenorphine SR was administered for pain relief at the time of surgery.
Animals received treatments on day 5 and day 7 post-surgery. […] To minimize the potential damage of solutions delivered by LJI to mice, an approximately 9 mm thick layer of 5% (w/v) of agarose was placed between the LJI nozzle and animal skin (FIG. 21).
Animals were inspected daily for wound closure, weight change and vitals. All animals were sacrificed on day 19 post-surgery using CO2 asphyxiation using a 30% oxygen displacement rate. The wound tissue was harvested and fixed in 10% neutral buffered formalin for further histological study.
Histological analysis: Sections of harvested skin were fixed by immersion in 10% neutral buffered formalin and routinely processed on a Tissue-Tek VIP 5 Tissue Processor. After processing, the tissues were embedded in paraffin blocks and were sectioned at 4 μm thick on a HM 355S Thermo Scientific microtome. Slides were deparaffinized and stained with H&E using a Leica ST5020 H&E stainer. Histological evaluation was conducted by a board certified veterinary anatomic blinded to the experiment.
Immunohistochemistry staining: In the murine study, formalin-fixed and paraffin-embedded biopsies were cut into 7 μm thick samples. Slides were deparaffinized, hydrated and washed using xylene and ethanol solutions. Subsequently, a heat mediated antigen retrieval step was performed at 95° C. for […]. The sections were blocked using 2.5% normal horse serum for 30 min at room temperature, and incubated with primary antibody (anti-CD31) at 4° C. overnight. Tissue sections were then treated with 3% hydrogen peroxide for 10 minutes at room temperature to block the peroxidase activity. Secondary antibody was then applied for 30 minutes at room temperature. To form a colored precipitate, DAB solution was incubated on the slides for 3-5 minutes. Finally, counterstaining was performed using hematoxylin for 30 seconds, and sections were dehydrated, washed, covered with mounting solution, and cover slipped.

In data set [6] the test system is full-thickness wounds on the dorsum of Yorkshire pigs. The note with it: day 14.
Protocol: To serve as controls, a group of wounds was treated with PBS for evaluating the potential effects of MNA administration, and a group was left untreated.
Large animal studies: The procedures for porcine animal studies were performed at Toxikon Corporation (Bedford, Mass.). The study protocol was approved by Toxikon's Institutional Animal Care and Use Committee, and conformed to federal animal laws and regulations. Three Yorkshire pigs (Animal Biotech Industries, Danboro, Pa.), 70-80 kg each, were anesthetized by intramuscular administration of 3.3 mg/kg ketamine, 2.2 mg/kg xylazine, 1.1 mg/kg acepromazine, and 0.02 mg/kg atropine. 0-5% isoflurane and oxygen were provided to maintain general anesthesia. Pain management was achieved by administration of a transdermal patch releasing 2-3 mkg/kg/h fentanyl per hour for 72 hours (Duragesic, Janssen). In addition, buprenorphine 0.01-0.03 mg/kg was delivered intramuscularly at the end of the surgery.
Circular full-thickness wounds (d=2.5 cm) were created on the dorsum of each pig. After marking the wounds in parallel paraspinal stripes, the outlines were tattooed with red ink using an electric tattoo marker (Spaulding & Rogers Mfg., Inc., Voorheesville, N.Y.). Full-thickness wounds down to fascia were excised. […]
For macroscopic wound evaluation, wound contraction was measured of the tattooed margins from macroscopic wound photos using Image J software (NIH, Bethesda, Md.). Open wound area (S1) and the area inside tattooed margin (S2) were measured and compared with original wound size on day 0 (S0=5 cm^2). The wound contraction and non-contracted wound closure contributions were calculated as 100×(S2−S0)/S0 and 100×(S2−S1)/S0, respectively.
In the swine experiment, the wounds were excised using a scalpel and fixed in formalin for immunohistochemical analysis. […] The wound sections were immunostained for von Willebrand Factor (vWF), smooth muscle actin (SMA), and CD3 based on manufacturers' protocols and the amount of positive staining was quantified in a blinded-manner using a light microscope.

In the case of `CCN(CC)c1ccc2c(-c3ccccc3C(=O)O)c3ccc(=[N+](CC)CC)cc-3oc2c1.[Cl-]` [rhodamine B], the “depth after which dye intensity promptly decreased” value in data set [1] is about 1 mm. In data set [2], the “release profile from alginate-filled MNAs” value is “curved burst release over the first 6 hours, with slower, more linear release over the next 3 days”.
As to “vascular endothelial growth factor [VEGF]”, in data set [3], the migration rate entry is “comparable to the positive control group”. Also, the scratch closure in data set [3] (in 4 hours) turned out to be 100%. Moreover, the “wound closure / healing rate” value in data set [4] (MNA delivery, 100 μL of 500 ng/mL on days 5 and 7, day 19) was 95%. In data set [4] (MNA delivery, day 17 and 19), the “wound closure compared with other groups” value was “significantly faster than both topical delivery and negative control groups”. In addition, the average wound size was determined as 0.04 cm^2 in data set [4] (MNA delivery, day 19) and 0.04 cm^2 in data set [5] (MNA delivery, end of the study). In addition, in data set [4] (MNA delivery, end of the experiments), the scarring entry is recorded as “no evidence of scaring was observed”. In data set [4] (topical delivery), the “hair growth in the wound area” value is listed as “no hair growth was observed”. Also, the “wound closure rate compared to negative control” value in data set [4] (topical delivery) is reported as “No significant difference was observed in the wound closure rate”. Besides, the average healing rate in data set [5] (LJI delivery, end of the study) stood at 81%; in data set [5] (MNA delivery, end of the study), 96%. Moreover, the “histological features at the central region of the wounds (H&E)” value is listed as “contained a bed of granulation tissue with a partially healed center” in data set [5] (TOP-administrated) and “more advanced wound healing characteristics” in data set [5] (intradermal delivery (MNA, LJI)). The “vascularization, IHC staining against CD31” value in data set [5] (intradermal delivery vs topical and controls, 19 days post-injury) is “Superior vascularization”. In data set [5] (intradermal delivery vs topical delivery and controls, 19 days after surgery), the overall healing result was “improved healing”. Moreover, in data set [5] (topical delivery, end of the 20-day study), the wound closure result was “about 66%”. The “wound closure rate compared to negative control groups” value in data set [5] (topical delivery, vs no treatment or PBS via MNA and LJI) is reported as “No significant difference was observed in the wound closure rate”. Also, the “expression of SMA+ myofibroblasts (IHC)” value in data set [6] (VEGF delivery) is recorded as “decreased the expression of SMA+ myofibroblasts”. In addition, the “vascularization (vWF expression)” value in data set [6] (intradermal (MNA) delivery) was “a significant enhancement in vascularization”; in data set [6] (topical delivery), “clearly less effective in inducing vascularization”.

Values taken from patent US20220273926A1, “DRUG DELIVERY USING MICRONEEDLE ARRAYS” (BOARD OF REGENTS OF THE UNIVERSITY OF NEBRASKA, priority 2019, published 2022).
